Data published in ChEMBL document CHEMBL1156974, “Design, synthesis and in vitro/in vivo evaluation of orally bioavailable prodrugs of a catechol-O-methyltransferase inhibitor” (Bioorg Med Chem Lett, 2010).
Values after ≈ are worked out from the molar mass of the structure shown.

How the values were obtained:
[1] = Chemical stability in acetate buffer assessed as hydrolysis half life at pH 4.0 by HPLC analysis; type: physicochemical
[2] = Uncoupling activity in Wistar rat mitochondria assessed as increase in oxygen consumption by mitochondrial respiration assay relative to 10 uM dinitrophenol; type: ADME
[3] = Half life in rat liver homogenate by HPLC analysis; type: ADME, tissue-based
Serum = test: Metabolic stability in human serum up to 8 hrs by HPLC analysis; type: ADME, cell-free
[4] = Aqueous solubility in HCl buffer at pH 1.2 by HPLC analysis; type: physicochemical
[5] = Distribution coefficient, log D at pH 7.4 by HPLC analysis; type: physicochemical; conditions: octanol/water
[6] = Aqueous solubility in phosphate buffer at pH 7.4 by HPLC analysis; type: physicochemical
[7] = Chemical stability in phosphate buffer at pH 7.4 up to 1 week by HPLC analysis; type: physicochemical; conditions: pH 7.4, 168 h
[8] = molecular target: T1, Catechol O-methyltransferase (Homo sapiens, UniProt P21964); test: Inhibition of human recombinant COMT by microplate screening assay
T1 sequence (P21964 whole entry): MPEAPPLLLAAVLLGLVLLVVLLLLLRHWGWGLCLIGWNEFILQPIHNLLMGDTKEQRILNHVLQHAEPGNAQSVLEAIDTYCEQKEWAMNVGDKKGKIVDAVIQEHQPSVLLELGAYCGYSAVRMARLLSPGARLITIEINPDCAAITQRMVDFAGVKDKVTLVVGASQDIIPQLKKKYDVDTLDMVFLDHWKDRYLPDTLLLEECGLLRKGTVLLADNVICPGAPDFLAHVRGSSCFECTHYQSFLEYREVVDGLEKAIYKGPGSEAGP

[9] = Aqueous solubility in acetate buffer at pH 4.0 by HPLC analysis; type: physicochemical
[10] = Half life in human serum by HPLC analysis; type: ADME, cell-free
[11] = Chemical stability in phosphate buffer assessed as hydrolysis half life at pH 7.4 by HPLC analysis; type: physicochemical
Rattus norvegicus = test: AUC in Wistar rat at 10 umol/kg, po up to 6 hrs by LC/MS/MS relative to 3-Chloro-5,6-dihydroxy-7-nitro-benzo[b]thiophene-2-carboxylic acid; type: ADME, organism-based, Plasma; conditions: in vivo
[12] = Chemical stability in fasted state simulated intestinal fluid up to 8 hrs by HPLC analysis; type: physicochemical; conditions: simulated gi fluid
[13] = Chemical stability in fasted state simulated intestinal fluid assessed as hydrolysis half life by HPLC analysis; type: physicochemical
[14] = Chemical stability in […] up to 1 week by HPLC analysis; type: physicochemical; conditions: pH 4, 168 h
[15] = Distribution coefficient, log D at pH 1.2 by HPLC analysis; type: physicochemical; conditions: octanol/water
[16] = Distribution coefficient, log D at pH 4.0 by HPLC analysis; type: physicochemical; conditions: octanol/water
[17] = buffer, BLD = below limit of detection
[18] = acetate buffer, read-out: solubility
[19] = HCl buffer, read-out: solubility

CCCOC(=O)c1sc2c([N+](=O)[O-])c(O)c(O)cc2c1Cl
half-life [1]: 744 h | Uncoupling concentration [2]: > 5 µM | half-life [3]: 0.34 h | Stability (Serum): Stable | solubility [4, 17]: BLD | logD ([5]; read-out: logD): 2.45 | solubility [6]: 10.8 µg/mL (≈ 32.6 µM) | Stability [7]: Stable | Ki [8]: 9.2 nM | solubility [9, 18]: 0.5 µg/mL (≈ 1.51 µM)

CC(OC(=O)c1sc2c([N+](=O)[O-])c(O)c(O)cc2c1Cl)OC(=O)C(C)C (stereo unspecified)
half-life [10]: 32.3 h | Uncoupling concentration [2]: > 50 µM | half-life [3]: ≤ 0.0167 h | half-life [11]: 48 h | fold change (FC) (Rattus norvegicus): 0.5 | Stability [12]: Stable | solubility [4, 17]: BLD | logD ([5]; read-out: logD): 3.02 | solubility [6]: 258 µg/mL (≈ 639 µM) | Ki [8]: 17 nM | solubility [9, 18]: 0.6 µg/mL (≈ 1.49 µM)

CCCC(=O)OC(C)OC(=O)c1sc2c([N+](=O)[O-])c(O)c(O)cc2c1Cl (stereo unspecified)
half-life [10]: 25 h | Uncoupling concentration [2]: > 50 µM | half-life [3]: ≤ 0.0167 h | half-life [11]: 4.5 h | solubility [4, 19]: 0.5 µg/mL (≈ 1.24 µM) | logD ([5]; read-out: logD): 2.16 | solubility [6]: 60.4 µg/mL (≈ 150 µM) | Ki [8]: 16.6 nM | solubility [9, 18]: 4.6 µg/mL (≈ 11.4 µM)

CC(C)OC(=O)c1sc2c([N+](=O)[O-])c(O)c(O)cc2c1Cl
half-life [1]: 552 h | Uncoupling concentration [2]: > 1 µM | half-life [3]: 2.18 h | Stability (Serum): Stable | solubility [4, 17]: BLD | logD ([5]; read-out: logD): 1.14 | solubility [6]: 18.7 µg/mL (≈ 56.4 µM) | Stability [7]: Stable | Ki [8]: 1.1 nM | solubility [9, 18]: 0.5 µg/mL (≈ 1.51 µM)

O=C(OCc1coc(=O)o1)c1sc2c([N+](=O)[O-])c(O)c(O)cc2c1Cl
half-life [1]: 93.6 h | half-life [10]: 0.03 h | half-life [3]: ≤ 0.0167 h | half-life [11]: 11.7 h | fold change (FC) (Rattus norvegicus): 2.1 | half-life [13]: 167 h | Ki [8]: 1.6 nM

COC(=O)c1sc2c([N+](=O)[O-])c(O)c(O)cc2c1Cl
Stability [14]: Stable | Uncoupling concentration [2]: > 10 µM | half-life [3]: 0.33 h | Stability (Serum): Stable | solubility [4, 19]: 0.7 µg/mL (≈ 2.31 µM) | logD ([5]; read-out: logD): 1.51 | solubility [6]: 11.4 µg/mL (≈ 37.5 µM) | Stability [7]: Stable | Ki [8]: 2.2 nM | solubility [9, 18]: 4.2 µg/mL (≈ 13.8 µM)

CCCC(=O)OCOC(=O)c1sc2c([N+](=O)[O-])c(O)c(O)cc2c1Cl
half-life [10]: 5.3 h | Uncoupling concentration [2]: > 50 µM | half-life [3]: ≤ 0.0167 h | half-life [11]: 2.5 h | Ki [8]: 10.6 nM

O=C(O)c1sc2c([N+](=O)[O-])c(O)c(O)cc2c1Cl
logD [15]: 3.64 | Uncoupling concentration [2]: > 50 µM | Stability [12]: Stable | solubility [4, 19]: 3.9 µg/mL (≈ 13.5 µM) | logD ([5]; read-out: logD): 0.06 | solubility [6]: 15000 µg/mL (≈ 51800 µM) | logD [16]: 1.8 | solubility [9, 18]: 53 µg/mL (≈ 183 µM)

CCCCOC(=O)c1sc2c([N+](=O)[O-])c(O)c(O)cc2c1Cl
Uncoupling concentration [2]: > 2.5 µM | half-life [3]: 0.698 h | Stability (Serum): Stable | solubility [4, 17]: BLD | logD ([5]; BLD = below limit of detection): BLD | solubility [6]: 3.2 µg/mL (≈ 9.25 µM) | Stability [7]: Stable | Ki [8]: 1.3 nM | solubility [9, 18]: 0.7 µg/mL (≈ 2.02 µM)

CC(C)C(=O)OCOC(=O)c1sc2c([N+](=O)[O-])c(O)c(O)cc2c1Cl
half-life [1]: 202 h | half-life [10]: 5.1 h | Uncoupling concentration [2]: > 50 µM | half-life [3]: ≤ 0.0167 h | half-life [11]: 7.6 h | fold change (FC) (Rattus norvegicus): 2 | Stability [12]: Stable | solubility [4, 17]: BLD | logD ([5]; read-out: logD): 2.91 | solubility [6]: ≥ 200 µg/mL | Ki [8]: 17 nM | solubility [9, 17]: BLD

CC(C)C(N)C(=O)OCOC(=O)c1sc2c([N+](=O)[O-])c(O)c(O)cc2c1Cl (stereo unspecified)
half-life [1]: 40.8 h | half-life [10]: 0.06 h | Uncoupling concentration [2]: 25 µM | half-life [3]: ≤ 0.0167 h | half-life [11]: 2 h | fold change (FC) (Rattus norvegicus): 0.4 | half-life [13]: 31.7 h | solubility [4, 19]: 6600 µg/mL (≈ 15800 µM) | solubility [6]: 10 µg/mL (≈ 23.9 µM) | Ki [8]: 6 nM | solubility [9, 18]: 17.5 µg/mL (≈ 41.8 µM)

O=C(OCc1ccccc1)c1sc2c([N+](=O)[O-])c(O)c(O)cc2c1Cl
Uncoupling concentration [2]: > 10 µM | half-life [3]: 0.865 h | half-life [11]: 21.6 h | Stability (Serum): Stable | solubility [4, 17]: BLD | logD ([5]; BLD = below limit of detection): BLD | solubility [6]: 6.9 µg/mL (≈ 18.2 µM) | Ki [8]: 10.2 nM | solubility [9, 17]: BLD
